Assay results reported in patent US6410533B1, “Antibacterial compounds” (Genzyme Corporation, priority 2000, dated 2002).
Converted amounts (≈) assume the structure as drawn. Read-outs that look alike come from different tables or passages of the source.

Experiments:
[1] = test system: Staphylococcus aureus bacteria (ATCC 9604 SV); experiment: Minimal inhibitory concentration (MIC), broth microdilution; assay type: cell-based; details: 24 h at 37° C.
Protocol: Minimal inhibitory concentrations (MICs) for Staphylococcus aureus bacteria (ATCC 9604 SV) were determined by broth microdilution methodology following National Committee for Clinical Laboratory Standards. In the MIC determinations, the compounds were incorporated into Mueller-Hinton broth (Becton Dickinson Microbiology systems, Cockeyville, Md.) at a series of concentrations. After the test organism was grown overnight in TB broth, the broths were adjusted to the turbidity equivalent to 0.05 McFarland standard. The suspensions were diluted twenty-fold into the broth containing the compounds. […] In the IC50 determination, the method was modified to allow the rapid growth of the organisms. The inoculum suspensions were adjusted to 0.1 McFarland standard and then diluted two-fold into the wells containing TB broth and the compounds. After three to five hours incubation at 37° C., the turbidity was measured at 550 nm and inhibitory activity was defined as the concentration of antimicrobial agent that inhibits 50% growth of the organism in the microdilution wells.

[2] = test system: methicillin-resistant Staphylococcus aureus (ATCC 33591); experiment: In vivo mouse intraperitoneal infection, mortality and % survivors over 7 days; details: 1 and 5 h post inoculation, MRSA ATCC 33591 i.p., ICR mice
Protocol: Ten male ICR mice weighing 20 grams were inoculated intraperitoneally with an LD90-100 dose (2-3×10^7 CFU/mouse) of methicillin-resistant Staphylococcus aureus (ATCC 33591) in brain-heart infusion broth containing 5% mucin. Compounds were suspended in a vehicle containing 1% cremophore EL (Sigma) in normal saline and were administered subcutaneously in a volume of 0.4 ml per mouse either 1 hour following bacterial inoculation or 1 and 5 hours post inoculation. Animals receiving two doses of drug were injected subcutaneously in the hindquarter one hour post-innoculation and in the neck area, 5 hours post-innoculation. Deaths occurring during the subsequent 7 days are recorded. Mortality and % survivor endpoints are calculated.

[3] = Staphylococcus aureus ATCC 9604 SV
[4] = ATCC9604, Staphylococcus aureus ATCC 9604 SV, read-out: MIC

Compound | MIC [1, 3] [µg/mL] | MIC [1, 4] [µg/mL] | In Vivo, double dose (% of mice rescued) ([2]; 2 × 2 mg/kg s.c.) [% @ 2 × 2 mg/kg] | In Vivo, double dose (% of mice rescued) ([2]; 2 × 20 mg/kg s.c.) [% @ 2 × 20 mg/kg]
CC1(C)C(=O)N(c2cc(Cl)cc(Cl)c2)N=C1c1ccccc1 [Compound 4] | >8.33 |  |  | 
CC1=NN(c2cc(Cl)cc(Cl)c2)C(=O)C1 [Compound 5] | 6.08 (≈ 25 µM) |  |  | 
Cc1ccc(C2=NN(c3cc(Cl)cc(Cl)c3)C(=O)C2)cc1 [Compound 6] | >7.98 |  |  | 
O=C1CC(c2ccccc2F)=NN1c1cc(Cl)cc(Cl)c1 [Compound 7] | >8.08 |  |  | 
O=C1CC(C2CCCCC2)=NN1c1cc(Cl)cc(Cl)c1 [Compound 8] | >7.78 |  |  | 
CN(C)C=C1C(=O)N(c2cc(Cl)cc(Cl)c2)N=C1c1ccccc1 [Compound 9, 2-(3,5-Dichloro-phenyl)-4-dimethylaminomethylene-5-phenyl-2,4-dihydro-pyrazol-3-one] |  | > 9.01 |  | 
CCCC1=NN(c2cc(Cl)cc(Cl)c2)C(=O)C1 [Compound 10] | 0.813 (≈ 3 µM) |  | 0 | 0
CC1=NN(c2cc(Cl)cc(Cl)c2)C(=O)C1C (stereo not drawn) [Compound 11] | >6.43 |  |  | 
O=C1C2CCCC2=NN1c1cc(Cl)cc(Cl)c1 (stereo not drawn) [Compound 12] | >6.73 |  |  | 
CC(C)C1=NN(c2cc(Cl)cc(Cl)c2)C(=O)C1 [Compound 13] | >6.78 |  |  | 
O=C1CC(C(F)(F)F)=NN1c1cc(Cl)cc(Cl)c1 [Compound 14] | 3.56 (≈ 12 µM) |  |  | 
O=C1CC(c2cccc(F)c2)=NN1c1cc(Cl)cc(Cl)c1 [Compound 15] | 0.485 (≈ 1.5 µM) |  | 0 | 0
O=C1CC(c2ccc(F)cc2)=NN1c1cc(Cl)cc(Cl)c1 [Compound 16] | 0.485 (≈ 1.5 µM) |  | 0 | 25
CCC1=NN(c2cc(Cl)cc(Cl)c2)C(=O)C1 [Compound 17] | 1.54 (≈ 5.99 µM) |  | 12.5 | 25
O=C1C2CCCCC2=NN1c1cc(Cl)cc(Cl)c1 (stereo not drawn) [Compound 18] | >7.08 |  |  | 
O=C1C(=Cc2ccncc2)C(c2ccccc2)=NN1c1cc(Cl)cc(Cl)c1 [Compound 19] | 1.15 (≈ 2.92 µM) |  | 0 | 25
CCC1C(=O)N(c2cc(Cl)cc(Cl)c2)N=C1C (stereo not drawn) [Compound 20] | >6.78 |  |  | 
CC1=NN(c2cc(Cl)cc(Cl)c2)C(=O)C1Cc1ccccc1 (stereo not drawn) [Compound 21] | 8.33 (≈ 25 µM) |  |  | 
CC(C)=C1C(=O)N(c2cc(Cl)cc(Cl)c2)N=C1c1ccccc1 [Compound 22] | 0.518 (≈ 1.5 µM) |  | 0 | 25
O=C1C(=NO)C(c2ccccc2)=NN1c1cc(Cl)cc(Cl)c1 [Compound 23, 2-(3,5-Dichloro-phenyl)-5-phenyl-2H-pyrazole-3,4-dione-4-oxime] |  | 8.35 (≈ 25 µM) | 0 | 25

Compound | MIC [1, 3] [µg/mL] | MIC [1, 4] [µg/mL] | In Vivo, double dose (% of mice rescued) ([2]; 2 × 2 mg/kg s.c.) [% @ 2 × 2 mg/kg] | In Vivo, double dose (% of mice rescued) ([2]; 2 × 20 mg/kg s.c.) [% @ 2 × 20 mg/kg]
O=C(O)c1ccccc1C=C1C(=O)N(c2cc(Cl)cc(Cl)c2)N=C1c1ccccc1 [Compound 24] | 1.35 (≈ 3.09 µM) |  | 0 | 0
CC(=O)C=C1C(=O)N(c2cc(Cl)cc(Cl)c2)N=C1c1ccccc1 [Compound 25] | 3.12 (≈ 8.69 µM) |  | 0 | 0
O=C(C=C1C(=O)N(c2cc(Cl)cc(Cl)c2)N=C1c1ccccc1)c1ccccc1 [Compound 26] | >12.5 |  |  | 
CCN(CC)c1ccc(C=C2C(=O)N(c3cc(Cl)cc(Cl)c3)N=C2c2ccccc2)cc1 [Compound 27] | >12.5 |  |  | 
CN(C)CCCOc1ccc(C=C2C(=O)N(c3cc(Cl)cc(Cl)c3)N=C2c2ccccc2)cc1 [Compound 28] | >12.5 |  |  | 
O=C1C(=Cc2ccccn2)C(c2ccccc2)=NN1c1cc(Cl)cc(Cl)c1 [Compound 29] | 12.5 (≈ 31.7 µM) |  |  | 
O=C1C(=Cc2cccnc2)C(c2ccccc2)=NN1c1cc(Cl)cc(Cl)c1 [Compound 30] | 1.20 (≈ 3.04 µM) |  | 0 | 0
CN1CCC(=C2C(=O)N(c3cc(Cl)cc(Cl)c3)N=C2c2ccccc2)CC1 [Compound 31, 2-(3,5-Dichloro-phenyl)-4-(1-methyl-piperidin-4-ylidene)-5-phenyl-2,4-dihydropyrazol-3-one] |  | 5 (≈ 12.5 µM) | 0 | 0
Cn1cccc1C=C1C(=O)N(c2cc(Cl)cc(Cl)c2)N=C1c1ccccc1 [Compound 32] | 0.320 (≈ 0.808 µM) |  |  | 
O=C1C(=Cc2ccsc2)C(c2ccccc2)=NN1c1cc(Cl)cc(Cl)c1 [Compound 33] | 5.00 (≈ 12.5 µM) |  | 25 | 0
O=C1C(=Cc2ccoc2)C(c2ccccc2)=NN1c1cc(Cl)cc(Cl)c1 [Compound 34] | 2.40 (≈ 6.26 µM) |  | 25 | 25
O=C1C(=Cc2ccco2)C(c2ccccc2)=NN1c1cc(Cl)cc(Cl)c1 [Compound 35] | >12.5 |  |  | 
O=C1C(=Cc2cccs2)C(c2ccccc2)=NN1c1cc(Cl)cc(Cl)c1 [Compound 36] | 12.5 (≈ 31.3 µM) |  |  | 
O=C1C(=Cc2nccs2)C(c2ccccc2)=NN1c1cc(Cl)cc(Cl)c1 [Compound 37] | 12.5 (≈ 31.2 µM) |  |  | 
CSc1ccc(C=C2C(=O)N(c3cc(Cl)cc(Cl)c3)N=C2c2ccccc2)cc1 [Compound 38] | 6.25 (≈ 14.2 µM) |  |  | 
O=C1C(=Cc2c[nH]c3ccccc23)C(c2ccccc2)=NN1c1cc(Cl)cc(Cl)c1 [Compound 39] | >10.0 |  |  | 
CCOC(=O)N1CCC(=C2C(=O)N(c3cc(Cl)cc(Cl)c3)N=C2c2ccccc2)CC1 [Compound 41] | 12.5 (≈ 27.3 µM) |  |  | 
Cn1cc(C=C2C(=O)N(c3cc(Cl)cc(Cl)c3)N=C2c2ccccc2)c2ccccc21 [Compound 43] | 0.400 (≈ 0.896 µM) |  |  | 
COC(=O)c1ccccc1C=C1C(=O)N(c2cc(Cl)cc(Cl)c2)N=C1c1ccccc1 [Compound 44] | 12.5 (≈ 27.7 µM) |  |  | 
O=C1CC(c2ccccc2)=NN1c1cc(C(F)(F)F)cc(C(F)(F)F)c1 [Compound 47] | 2.33 (≈ 6.26 µM) |  |  | 

Compound | MIC [1, 3] [µg/mL] | MIC [1, 4] [µg/mL] | In Vivo, double dose (% of mice rescued) ([2]; 2 × 2 mg/kg s.c.) [% @ 2 × 2 mg/kg] | In Vivo, double dose (% of mice rescued) ([2]; 2 × 20 mg/kg s.c.) [% @ 2 × 20 mg/kg]
O=C1CC(c2ccccn2)=NN1c1cc(Cl)cc(Cl)c1 [Compound 48] | >7.65 |  |  | 
O=C1CC(c2cccnc2)=NN1c1cc(Cl)cc(Cl)c1 [Compound 53] | 7.65 (≈ 25 µM) |  |  | 
CCC1=NN(c2cc(Cl)cc(Cl)c2)C(=O)C1=NO [Compound 60] | 7.15 (≈ 25 µM) |  |  | 
CCC1=NN(c2cc(Cl)cc(Cl)c2)C(=O)C1=CCCC(=O)O [Compound 61] | 8.53 (≈ 25 µM) |  |  | 
CCOC(=O)C1=NN(c2cc(Cl)cc(Cl)c2)C(=O)C1=CC1C(=O)Nc2ccccc21 (stereo not drawn) [Compound 62] | 12.5 (≈ 28.1 µM) |  |  | 
CCOC(=O)C1=NN(c2cc(Cl)cc(Cl)c2)C(=O)C1=Cc1ccc(C(=O)O)cc1 [Compound 63] | 12.5 (≈ 28.9 µM) |  |  | 
CCOC(=O)C1=NN(c2cc(Cl)cc(Cl)c2)C(=O)C1=CC(=O)O [Compound 64] | 6.25 (≈ 17.5 µM) |  |  | 
CCOC(=O)C1=NN(c2cc(Cl)cc(Cl)c2)C(=O)C1 [Compound 67] | 3.76 (≈ 12.5 µM) |  |  | 
CCC1=NN(c2cc(Cl)cc(Cl)c2)C(=O)C1=Cc1cccc(C(=O)N2CCN(C)CC2)c1 [Compound 68] | 11.8 (≈ 25 µM) |  |  | 
CCC1=NN(c2cc(Cl)cc(Cl)c2)C(=O)C1=Cc1cccc(C(=O)N2CCOCC2)c1 [Compound 69] | 11.5 (≈ 25.1 µM) |  |  | 
CCC1=NN(c2cc(Cl)cc(Cl)c2)C(=O)C1=Cc1cccc(C(=O)NCCO)c1 [Compound 70] | 5.40 (≈ 12.5 µM) |  |  | 
O=C(NCc1cccc(Cl)c1)Nc1nc(-c2cccc(F)c2)cs1 [Compound 174] | 9.05 (≈ 25 µM) |  |  | 
O=C(NCc1cccc(Cl)c1)Nc1nc(-c2ccc(C(F)(F)F)cc2)cs1 [Compound 176] | 5.15 (≈ 12.5 µM) |  |  | 
O=C(NCc1cccc(Cl)c1)Nc1nc(-c2ccc(Cl)cc2Cl)cs1 [Compound 177] | 5.16 (≈ 12.5 µM) |  |  | 
O=C(NCc1cccc(Cl)c1)Nc1nc(-c2ccc(F)cc2F)cs1 [Compound 178] | 9.50 (≈ 25 µM) |  |  | 
O=C(NCc1cccc(Cl)c1)Nc1nc(-c2ccc(Cl)c(Cl)c2)cs1 [Compound 179] | 5.16 (≈ 12.5 µM) |  |  | 
Cc1cc(-c2csc(NC(=O)NCc3cccc(Cl)c3)n2)ccc1F [Compound 180] | 9.40 (≈ 25 µM) |  |  | 
O=C(NCc1ccc(Cl)c(Cl)c1)Nc1nc(-c2ccc(Br)cc2)cs1 [Compound 181] | 11.4 (≈ 24.9 µM) |  |  | 
